# Data: US8188085B2, “Antifungal agents” (Merck Sharp & Dohme Corp., priority 2008, dated 2012)
# Molecular target: glucan synthase (GS) prepared from Candida albicans MY1055 (Candida albicans, UniProt O13428)
# Assay: Glucan synthase inhibition (polymerization assay, 96-well)
# Type: biochemical
# Settings: GS from C. albicans MY1055; 60 min incubation at 22° C.; read-out: Candida Albicans GS IC50 (converted)
# Summary of the method: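 Partially purified glucan synthase from C. albicans MY1055 membranes incorporated 0.5 mM ³H-UDPG with 25 μM GTP-γ-S, HEPES pH 7.5, over 60 min at 22 °C. TCA-precipitated glucan was counted by scintillation. IC50 (ng/mL) came from sigmoidal fits of duplicate 3-fold dilution series.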
# glucan synthase (GS) prepared from Candida albicans MY1055, sequence (O13428 1-1897): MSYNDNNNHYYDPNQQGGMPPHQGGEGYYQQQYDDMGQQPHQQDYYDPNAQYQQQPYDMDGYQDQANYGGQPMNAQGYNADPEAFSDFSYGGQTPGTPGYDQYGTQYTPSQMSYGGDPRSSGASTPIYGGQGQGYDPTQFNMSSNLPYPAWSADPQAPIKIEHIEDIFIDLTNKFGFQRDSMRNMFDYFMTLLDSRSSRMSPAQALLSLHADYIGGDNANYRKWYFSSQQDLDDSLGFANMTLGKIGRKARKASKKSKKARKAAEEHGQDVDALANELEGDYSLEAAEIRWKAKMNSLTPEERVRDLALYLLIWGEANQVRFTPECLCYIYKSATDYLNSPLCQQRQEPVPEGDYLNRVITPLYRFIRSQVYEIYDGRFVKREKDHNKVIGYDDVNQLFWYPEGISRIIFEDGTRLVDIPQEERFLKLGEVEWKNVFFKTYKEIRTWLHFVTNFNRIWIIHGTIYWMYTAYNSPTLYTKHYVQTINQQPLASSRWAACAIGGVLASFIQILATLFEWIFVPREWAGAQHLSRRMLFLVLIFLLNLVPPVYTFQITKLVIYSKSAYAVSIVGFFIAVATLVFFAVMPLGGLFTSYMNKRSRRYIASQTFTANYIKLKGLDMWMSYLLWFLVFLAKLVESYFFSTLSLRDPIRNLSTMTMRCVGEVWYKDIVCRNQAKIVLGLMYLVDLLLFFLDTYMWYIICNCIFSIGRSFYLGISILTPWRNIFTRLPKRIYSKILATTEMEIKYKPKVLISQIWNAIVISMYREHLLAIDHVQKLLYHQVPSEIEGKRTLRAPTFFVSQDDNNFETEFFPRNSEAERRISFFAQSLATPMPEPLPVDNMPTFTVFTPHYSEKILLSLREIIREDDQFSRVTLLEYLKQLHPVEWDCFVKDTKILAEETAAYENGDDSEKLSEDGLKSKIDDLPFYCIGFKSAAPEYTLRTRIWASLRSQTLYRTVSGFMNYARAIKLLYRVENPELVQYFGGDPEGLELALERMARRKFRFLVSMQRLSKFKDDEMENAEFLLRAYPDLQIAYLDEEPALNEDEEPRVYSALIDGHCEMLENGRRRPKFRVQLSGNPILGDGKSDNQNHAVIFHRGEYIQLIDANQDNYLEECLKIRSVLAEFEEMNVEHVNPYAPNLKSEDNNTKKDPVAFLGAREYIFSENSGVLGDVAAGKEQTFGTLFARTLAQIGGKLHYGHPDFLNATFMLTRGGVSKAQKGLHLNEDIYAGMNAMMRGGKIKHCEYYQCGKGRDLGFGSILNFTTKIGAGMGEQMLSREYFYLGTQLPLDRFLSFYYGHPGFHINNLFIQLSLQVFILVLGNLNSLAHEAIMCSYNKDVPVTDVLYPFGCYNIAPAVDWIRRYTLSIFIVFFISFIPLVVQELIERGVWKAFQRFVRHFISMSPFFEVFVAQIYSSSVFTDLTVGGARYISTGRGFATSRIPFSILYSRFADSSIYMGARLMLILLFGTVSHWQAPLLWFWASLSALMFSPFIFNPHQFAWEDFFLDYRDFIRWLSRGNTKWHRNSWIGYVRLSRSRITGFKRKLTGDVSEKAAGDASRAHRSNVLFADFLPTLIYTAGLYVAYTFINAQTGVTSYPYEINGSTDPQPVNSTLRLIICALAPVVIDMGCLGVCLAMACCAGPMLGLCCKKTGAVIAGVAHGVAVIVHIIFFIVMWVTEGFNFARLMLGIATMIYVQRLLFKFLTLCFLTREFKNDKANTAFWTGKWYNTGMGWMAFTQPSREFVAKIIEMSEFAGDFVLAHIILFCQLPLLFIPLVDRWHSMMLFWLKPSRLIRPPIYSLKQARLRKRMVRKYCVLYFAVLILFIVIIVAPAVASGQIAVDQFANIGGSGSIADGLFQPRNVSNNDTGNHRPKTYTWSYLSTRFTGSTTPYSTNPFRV
row,Structure (SMILES),IC50
1,"CNC(=O)c1ncnn1[C@@H]1C[C@@]23COC[C@](C)([C@@H]2CC[C@H]2C3=CC[C@@]3(C)[C@H](C(=O)O)[C@@](C)([C@H](C)C(C)C)CC[C@]23C)[C@H]1OCC1(N)CCOCC1 [Example 112, (1S,4aR,6aS,7R,8R,10aR,10bR,12aR,14R,15R)-15-[(4-aminotetrahydro-2H-pyran-4-yl)methoxy]-8-[(1R)-1,2-dimethylpropyl]-14-[5-[(methylamino)carbonyl]-1H-1,2,4-triazol-1-yl]-1,6,6a,7,8,9,10,10a,10b,11,12,12a-dodecahydro-1,6a,8,10a-tetramethyl-4H-1,4a-propano-2H-phenanthro[1,2-c]pyran-7-carboxylic acid]",9.86 nM
2,"CNC(=O)c1ncnn1[C@@H]1C[C@@]23COC[C@](C)([C@@H]2CC[C@H]2C3=CC[C@@]3(C)[C@H](C(=O)O)[C@@](C)([C@H](C)C(C)C)CC[C@]23C)[C@H]1OCC1(NC)CCSCC1 [Example 116, (1S,4aR,6aS,7R,8R,10aR,10bR,12aR,14R,15R)-8-[(1R)-1,2-dimethylpropyl]-14-[5-[(methylamino)carbonyl]-1H-1,2,4-triazol-1-yl]-15-[[tetrahydro-4-(methylamino)-2H-thiopyran-4-yl]methoxy]-1,6,6a,7,8,9,10,10a,10b,11,12,12a-dodecahydro-1,6a,8,10a-tetramethyl-4H-1,4a-propano-2H-phenanthro[1,2-c]pyran-7-carboxylic acid]",20.3 nM
3,"CC(C)[C@@H](C)[C@@]1(C)CC[C@]2(C)[C@H]3CC[C@@H]4[C@@]5(COC[C@@]4(C)[C@@H](OC[C@](C)(N)C(C)(C)C)[C@H](n4ncnc4S(N)(=O)=O)C5)C3=CC[C@@]2(C)[C@@H]1C(=O)O [Example 123C, (1S,4aR,6aS,7R,8R,10aR,10bR,12aR,14R,15R)-14-[5-(aminosulfonyl)-1H-1,2,4-triazol-1-yl]-15-[[(2R)-2-amino-2,3,3-trimethylbutyl]oxy]-8-[(1R)-1,2-dimethylpropyl]-1,6,6a,7,8,9,10,10a,10b,11,12,12a-dodecahydro-1,6a,8,10a-tetramethyl-4H-1,4a-propano-2H-phenanthro[1,2-c]pyran-7-carboxylic acid]",5.46 nM
4,"CCCNS(=O)(=O)c1ncnn1[C@@H]1C[C@@]23COC[C@](C)([C@@H]2CC[C@H]2C3=CC[C@@]3(C)[C@H](C(=O)O)[C@@](C)([C@H](C)C(C)C)CC[C@]23C)[C@H]1OCC(N)(CC)CC [Example 126, (1S,4aR,6aS,7R,8R,10aR,10bR,12aR,14R,15R)-15-(2-amino-2-ethylbutoxy)-8-[(1R)-1,2-dimethylpropyl]-14-[5-[(propylamino)sulfonyl]-1H-1,2,4-triazol-1-yl]-1,6,6a,7,8,9,10,10a,10b,11,12,12a-dodecahydro-1,6a,8,10a-tetramethyl-4H-1,4a-propano-2H-phenanthro[1,2-c]pyran-7-carboxylic acid]",34.2 nM
5,"CN[C@@](C)(CO[C@H]1[C@H](n2ncnc2C2=NCCCN2)C[C@@]23COC[C@]1(C)[C@@H]2CC[C@H]1C3=CC[C@@]2(C)[C@H](C(=O)O)[C@@](C)([C@H](C)C(C)C)CC[C@]12C)C(C)(C)C [Example 136, (1S,4aR,6aS,7R,8R,10aR,10bR,12aR,14R,15R)-8-[(1R)-1,2-dimethylpropyl]-14-[5-(1,4,5,6-tetrahydro-2-pyrimidinyl)-1H-1,2,4-triazol-1-yl]-15-[[(2R)-2,3,3-trimethyl-2-(methylamino)butyl]oxy]-1,6,6a,7,8,9,10,10a,10b,11,12,12a-dodecahydro-1,6a,8,10a-tetramethyl-4H-1,4a-propano-2H-phenanthro[1,2-c]pyran-7-carboxylic acid]",12 nM
6,"CN[C@@](C)(CO[C@H]1[C@H](n2ncnc2-c2ccccc2)C[C@@]23COC[C@]1(C)[C@@H]2CC[C@H]1C3=CC[C@@]2(C)[C@H](C(=O)O)[C@@](C)([C@H](C)C(C)C)CC[C@]12C)C(C)C [Example 150, (1S,4aR,6aS,7R,8R,10aR,10bR,12aR,14R,15R)-15-[[(2R)-2,3-dimethyl-2-(methylamino)butyl]oxy]-8-[(1R)-1,2-dimethylpropyl]-14-(5-phenyl-1H-1,2,4-triazol-1-yl)-1,6,6a,7,8,9,10,10a,10b,11,12,12a-dodecahydro-1,6a,8,10a-tetramethyl-4H-1,4a-propano-2H-phenanthro[1,2-c]pyran-7-carboxylic acid]",2.74 nM
7,"CC(C)[C@@H](C)[C@@]1(C)CC[C@]2(C)[C@H]3CC[C@@H]4[C@@]5(COC[C@@]4(C)[C@@H](OC[C@](C)(N)C(C)C)[C@H](n4ncnc4-c4ccc6ccccc6c4)C5)C3=CC[C@@]2(C)[C@@H]1C(=O)O [Example 158, (1S,4aR,6aS,7R,8R,10aR,10bR,12aR,14R,15R)-15-[[(2R)-2-amino-2,3-dimethylbutyl]oxy]-8-[(1R)-1,2-dimethylpropyl]-14-[5-(2-naphthalenyl)-1H-1,2,4-triazol-1-yl]-1,6,6a,7,8,9,10,10a,10b,11,12,12a-dodecahydro-1,6a,8,10a-tetramethyl-4H-1,4a-propano-2H-phenanthro[1,2-c]pyran-7-carboxylic acid]",20.9 nM
8,"CN[C@@](C)(CO[C@H]1[C@H](n2ncnc2-c2cccs2)C[C@@]23COC[C@]1(C)[C@@H]2CC[C@H]1C3=CC[C@@]2(C)[C@H](C(=O)O)[C@@](C)([C@H](C)C(C)C)CC[C@]12C)C(C)C [Example 163, (1S,4aR,6aS,7R,8R,10aR,10bR,12aR,14R,15R)-15-[[(2R)-2,3-dimethyl-2-(methylamino)butyl]oxy]-8-[(1R)-1,2-dimethylpropyl]-14-[5-(2-thienyl)-1H-1,2,4-triazol-1-yl]-1,6,6a,7,8,9,10,10a,10b,11,12,12a-dodecahydro-1,6a,8,10a-tetramethyl-4H-1,4a-propano-2H-phenanthro[1,2-c]pyran-7-carboxylic acid]",6.8 nM

# Second part, the molecule after the results:
row,IC50,Structure (SMILES)
1,12.9 nM,"CC(C)[C@@H](C)[C@@]1(C)CC[C@]2(C)[C@H]3CC[C@@H]4[C@@]5(COC[C@@]4(C)[C@@H](OC[C@](C)(N)C(C)C)[C@H](n4nc(N)nc4C(N)=O)C5)C3=CC[C@@]2(C)[C@@H]1C(=O)O [Example 119, (1S,4aR,6aS,7R,8R,10aR,10bR,12aR,14R,15R)-14-[3-amino-5-(aminocarbonyl)-1H-1,2,4-triazol-1-yl]-15-[[(2R)-2-amino-2,3-dimethylbutyl]oxy]-8-[(1R)-1,2-dimethylpropyl]-1,6,6a,7,8,9,10,10a,10b,11,12,12a-dodecahydro-1,6a,8,10a-tetramethyl-4H-1,4a-propano-2H-phenanthro[1,2-c]pyran-7-carboxylic acid]"
2,8.49 nM,"CC(C)[C@@H](C)[C@@]1(C)CC[C@]2(C)[C@H]3CC[C@@H]4[C@@]5(COC[C@@]4(C)[C@@H](OC[C@](C)(N)C(C)C)[C@H](n4ncnc4C4=NCCN4)C5)C3=CC[C@@]2(C)[C@@H]1C(=O)O [Example 128, (1S,4aR,6aS,7R,8R,10aR,10bR,12aR,14R,15R)-15-[[(2R)-2-amino-2,3-dimethylbutyl]oxy]-14-[5-(4,5-dihydro-1H-imidazol-2-yl)-1H-1,2,4-triazol-1-yl]-8-[(1R)-1,2-dimethylpropyl]-1,6,6a,7,8,9,10,10a,10b,11,12,12a-dodecahydro-1,6a,8,10a-tetramethyl-4H-1,4a-propano-2H-phenanthro[1,2-c]pyran-7-carboxylic acid]"
3,8.5 nM,"CC(C)[C@@H](C)[C@@]1(C)CC[C@]2(C)[C@H]3CC[C@@H]4[C@@]5(COC[C@@]4(C)[C@@H](OC[C@](C)(N)C(C)C)[C@H](n4ncnc4-n4cncn4)C5)C3=CC[C@@]2(C)[C@@H]1C(=O)O [Example 138, (1S,4aR,6aS,7R,8R,10aR,10bR,12aR,14R,15R)-15-[[(2R)-2-amino-2,3-dimethylbutyl]oxy]-14-[1,5′-bi-1H-1,2,4-triazol]-1′-yl-8-[(1R)-1,2-dimethylpropyl]-1,6,6a,7,8,9,10,10a,10b,11,12,12a-dodecahydro-1,6a,8,10a-tetramethyl-4H-1,4a-propano-2H-phenanthro[1,2-c]pyran-7-carboxylic acid]"
4,6.84 nM,"CCS(=O)(=O)c1ncnn1[C@@H]1C[C@@]23COC[C@](C)([C@@H]2CC[C@H]2C3=CC[C@@]3(C)[C@H](C(=O)O)[C@@](C)([C@H](C)C(C)C)CC[C@]23C)[C@H]1OC[C@](C)(N)C(C)C [Example 140, (1S,4aR,6aS,7R,8R,10aR,10bR,12aR,14R,15R)-15-[[(2R)-2-amino-2,3-dimethylbutyl]oxy]-8-[(1R)-1,2-dimethylpropyl]-14-[5-(ethylsulfonyl)-1H-1,2,4-triazol-1-yl]-1,6,6a,7,8,9,10,10a,10b,11,12,12a-dodecahydro-1,6a,8,10a-tetramethyl-4H-1,4a-propano-2H-phenanthro[1,2-c]pyran-7-carboxylic acid]"
5,8.51 nM,"CC(C)[C@@H](C)[C@@]1(C)CC[C@]2(C)[C@H]3CC[C@@H]4[C@@]5(COC[C@@]4(C)[C@@H](OC[C@](C)(N)C(C)C)[C@H](n4ncnc4-c4ccoc4)C5)C3=CC[C@@]2(C)[C@@H]1C(=O)O [Example 144, (1S,4aR,6aS,7R,8R,10aR,10bR,12aR,14R,15R)-15-[[(2R)-2-amino-2,3-dimethylbutyl]oxy]-8-[(1R)-1,2-dimethylpropyl]-14-[5-(3-furanyl)-1H-1,2,4-triazol-1-yl]-1,6,6a,7,8,9,10,10a,10b,11,12,12a-dodecahydro-1,6a,8,10a-tetramethyl-4H-1,4a-propano-2H-phenanthro[1,2-c]pyran-7-carboxylic acid]"
6,18 nM,"CC(C)[C@@H](C)[C@@]1(C)CC[C@]2(C)[C@H]3CC[C@@H]4[C@@]5(COC[C@@]4(C)[C@@H](OC[C@](C)(N)C(C)C)[C@H](n4ncnc4N4CCOCC4)C5)C3=CC[C@@]2(C)[C@@H]1C(=O)O [Example 148, (1S,4aR,6aS,7R,8R,10aR,10bR,12aR,14R,15R)-15-[[(2R)-2-amino-2,3-dimethylbutyl]oxy]-8-[(1R)-1,2-dimethylpropyl]-14-[5-(4-morpholinyl)-1H-1,2,4-triazol-1-yl]-1,6,6a,7,8,9,10,10a,10b,11,12,12a-dodecahydro-1,6a,8,10a-tetramethyl-4H-1,4a-propano-2H-phenanthro[1,2-c]pyran-7-carboxylic acid]"
